Test results taken from patent US20160194299A1 (priority 2013, published 2016).
In brackets after ≈: the same amount, converted by molar mass. Read-outs that look alike come from different tables or passages of the source.

Experiments:
Mtb [1] = test: microbe, parasite or virus in culture; assay type: cell-based, Mycobacterium tuberculosis; conditions: Mycobacterium tuberculosis
Mtb [2] = test: microbe, parasite or virus in culture; assay type: cell-based, Mycobacterium tuberculosis; conditions: Mycobacterium tuberculosis, read-out: MIC (III)
in vitro = conditions: African green monkey
[3] = read-out: MIC, microplate alamar blue assay (MABA; I)

Row | Structure (SMILES) | MIC (Mtb [1]; read-out: MIC (I)) | MIC (Mtb [2]) | CC50 (in vitro) | MIC (Mtb [1]; [3])
1 | CCOC(=O)NC(=O)c1ccsc1NC(=O)C1COc2cc(OC)ccc2C1 (centres unmarked) [Compound 70] | > 3 µg/mL | > 25 µg/mL | > 50 µg/mL | 
2 | CCOC(=O)NC(=O)c1ccsc1NC(=O)c1cc2ccccn2c1 [Compound 310] | > 3 µg/mL | > 25 µg/mL | > 50 µg/mL | 
3 | CCOC(=O)NC(=O)c1ccsc1NC(=O)c1cnc2c(Br)cnn2c1 [Compound 266] | < 1 µg/mL | > 25 µg/mL | 25 to 50 µg/mL (≈ 57 to 114 µM) | 
4 | CC(C)(C)C(=O)Nc1cc(C(=O)Nc2sccc2C(=O)NC(=O)OCCN2CCOCC2)ccn1 [Compound 32] | > 3 µg/mL | > 25 µg/mL | > 50 µg/mL | 
5 | CCOC(=O)NC(=O)c1ccsc1NC(=O)c1cn2cc(C)ccc2n1 [Compound 208] | > 3 µg/mL | > 25 µg/mL | > 50 µg/mL | 
6 | COCCOC(=O)NC(=O)c1ccsc1NC(=O)c1cnc2ccnn2c1 [Compound 372] | < 1 µg/mL | > 25 µg/mL | 25 to 50 µg/mL (≈ 64.2 to 128 µM) | 
7 | CC(C)OC(=O)NC(=O)c1cc(F)sc1NC(=O)c1nc2cnccc2s1 [Compound 104] | < 1 µg/mL | < 5 µg/mL | < 25 µg/mL | 
8 | CCOC(=O)NC(=O)c1ccsc1NC(=O)c1ccn2nccc2c1 [Compound 251] | < 1 µg/mL | 5 to 25 µg/mL (≈ 14 to 69.8 µM) |  | 
9 | CCOC(=O)NC(=O)c1ccsc1NC(=O)c1nc2c(N3CCOCC3)ccnc2s1 [Compound 247] | < 1 µg/mL | 5 to 25 µg/mL (≈ 10.8 to 54.2 µM) | 25 to 50 µg/mL (≈ 54.2 to 108 µM) | 
10 | CCOC(=O)NC(=O)c1ccsc1NC(=O)Nc1nc2ccccc2s1 [Compound 312] | > 3 µg/mL | > 25 µg/mL | 25 to 50 µg/mL (≈ 64 to 128 µM) | 
11 | O=C(NC(=O)c1ccsc1NC(=O)c1nc2cnccc2s1)OCCOCc1ccccc1 [Compound 369] | < 1 µg/mL | > 25 µg/mL | 25 to 50 µg/mL (≈ 51.8 to 104 µM) | 
12 | CCOC(=O)NC(=O)c1ccsc1NC(=O)c1ccc(=O)[nH]n1 [Compound 91] | 1 to 3 µg/mL (≈ 2.97 to 8.92 µM) | < 5 µg/mL | > 50 µg/mL | 
13 | CCOC(=O)NC(=O)c1ccsc1NC(=O)c1cnn2cccnc12 [Compound 253] | > 3 µg/mL | > 25 µg/mL |  | 
14 | CCOC(=O)NC(=O)c1ccsc1NC(=O)c1ccc2sc(N3CCOCC3)nc2c1 [Compound 58] | < 1 µg/mL | 5 to 25 µg/mL (≈ 10.9 to 54.3 µM) | > 50 µg/mL | 
15 | O=C(NC(=O)c1ccsc1NC(=O)c1nc2cnccc2s1)OCc1ccccc1F [Compound 287] | 1 to 3 µg/mL (≈ 2.19 to 6.57 µM) | 5 to 25 µg/mL (≈ 11 to 54.8 µM) | 25 to 50 µg/mL (≈ 54.8 to 110 µM) | 
16 | CCOC(=O)NC(=O)c1ccsc1NC(=O)C1CCc2ccccc2N1 (centres unmarked) [Compound 143] | > 3 µg/mL | 5 to 25 µg/mL (≈ 13.4 to 66.9 µM) | > 50 µg/mL | 
17 | CCOC(=O)NC(=O)c1ccsc1NC(=O)c1cc(O)nc2ccccc12 [Compound 115] | > 3 µg/mL | > 25 µg/mL | > 50 µg/mL | 
18 | CCOC(=O)NC(=O)c1ccsc1NC(=O)c1nc2c(s1)CCN(CC)C2 [Compound 79] | 1 to 3 µg/mL (≈ 2.45 to 7.34 µM) | > 25 µg/mL |  | 
19 | C=CCOC(=O)NC(=O)c1ccsc1NC(=O)c1cnc2ccnn2c1 [Compound 297] | < 1 µg/mL | < 5 µg/mL | < 25 µg/mL | 

Row | Structure (SMILES) | MIC (Mtb [1]; read-out: MIC (I)) | MIC (Mtb [2]) | CC50 (in vitro) | MIC (Mtb [1]; [3])
20 | O=C(NC(=O)c1ccsc1NC(=O)c1nc2cnccc2s1)OCCC(F)(F)F [Compound 320] | < 1 µg/mL | > 25 µg/mL | > 50 µg/mL | 
21 | CCOC(=O)NC(=O)c1ccsc1NC(=O)c1cc2ncccn2n1 [Compound 250] | < 1 µg/mL | 5 to 25 µg/mL (≈ 13.9 to 69.6 µM) |  | 
22 | CCOC(=O)NC(=O)c1ccsc1NC(=O)c1ccn2nccc2n1 [Compound 252] | > 3 µg/mL | > 25 µg/mL |  | 
23 | O=C(NC(=O)c1ccsc1NC(=O)c1cnc2ccnn2c1)OC1CCC1 [Compound 324] | < 1 µg/mL | > 25 µg/mL |  | 
24 | CCOC(=O)NC(=O)c1ccsc1NC(=O)c1nc2c(s1)CCN(C(=O)OC)C2 [Compound 95] | < 1 µg/mL | > 25 µg/mL |  | 
25 | CCOC(=O)NC(=O)c1ccsc1NC(=O)c1cn2ccncc2n1 [Compound 78] | > 3 µg/mL | > 25 µg/mL |  | 
26 | CCOC(=O)NC(=O)c1ccsc1NC(=O)c1nc2cc(C#N)cnc2s1 [Compound 54] | < 1 µg/mL | > 25 µg/mL |  | 
27 | CCOC(=O)NC(=O)c1ccsc1NC(=O)c1nc2c(s1)CCNC2=O [Compound 55] | > 3 µg/mL | > 25 µg/mL |  | 
28 | CCOC(=O)NC(=O)c1c(NC(=O)c2nc3ccccc3s2)sc2c1CCOC2 [Compound 242] |  | > 25 µg/mL | > 50 µg/mL | 
29 | CC(C)OC(=O)NC(=O)c1ccsc1NC(=O)c1cn2ccccc2n1 [Compound 323] | 1 to 3 µg/mL (≈ 2.69 to 8.06 µM) | > 25 µg/mL |  | 
30 | CCOC(=O)NC(=O)c1ccsc1NC(=O)c1cnc2ncccn12 [Compound 80] | 1 to 3 µg/mL (≈ 2.78 to 8.35 µM) | > 25 µg/mL |  | 
31 | CC(OC(=O)NC(=O)c1ccsc1NC(=O)c1nc2cnccc2s1)C(F)(F)F (centres unmarked) [Compound 325] | < 1 µg/mL | > 25 µg/mL |  | 
32 | O=C(Nc1sccc1C(=O)NC(=O)N1CCCCC1)c1nc2cnccc2s1 [Compound 428] |  |  | > 50 µg/mL | 1 to 3 µg/mL (≈ 2.41 to 7.22 µM)
33 | CCOC(=O)NC(=O)c1ccsc1NC(=O)c1cc2cccc(F)c2s1 [Compound 407] |  |  | < 25 µg/mL | < 1 µg/mL
34 | CCOC(=O)NC(=O)c1ccsc1NC(=O)c1nc2nc(C)c(Cl)cc2s1 [Compound 409] |  |  | 25 to 50 µg/mL (≈ 58.8 to 118 µM) | < 1 µg/mL
35 | O=C(NC(=O)c1ccsc1NC(=O)c1nc2ncccc2s1)OCCOCc1ccccc1 [Compound 437] |  |  | < 25 µg/mL | < 1 µg/mL
36 | CCOC(=O)NC(=O)c1ccsc1NC(=O)c1cccnn1 [Compound 249] | > 3 µg/mL | > 25 µg/mL |  | 
37 | O=C(NC(=O)c1ccsc1NC(=O)c1nc2ccccc2s1)OC1CCCC1 [Compound 31] | < 1 µg/mL |  | > 50 µg/mL | 
38 | CCOC(=O)NC(=O)c1ccsc1NC(=O)c1cn2cc(S(C)(=O)=O)ccc2n1 [Compound 438] |  |  | 25 to 50 µg/mL (≈ 57.3 to 115 µM) | < 1 µg/mL

Row | Structure (SMILES) | MIC (Mtb [1]; read-out: MIC (I)) | MIC (Mtb [2]) | CC50 (in vitro) | MIC (Mtb [1]; [3])
39 | O=C(Nc1sccc1C(=O)Nc1cccnn1)c1nc2cnccc2s1 [Compound 442] |  |  | 25 to 50 µg/mL (≈ 65.4 to 131 µM) | 1 to 3 µg/mL (≈ 2.61 to 7.84 µM)
40 | CCOC(=O)NC(=O)c1ccsc1NC(=O)c1nc2c(s1)CCN(S(C)(=O)=O)C2 [Compound 96] | < 1 µg/mL | > 25 µg/mL |  | 
41 | CC(OC(=O)NC(=O)c1ccsc1NC(=O)c1cnc2ccnn2c1)C(F)(F)F (centres unmarked) [Compound 326] | > 3 µg/mL | > 25 µg/mL |  | 
42 | CCOC(=O)NC(=O)c1ccsc1NC(=O)c1ccc2nonc2c1 [Compound 402] |  |  | < 25 µg/mL | < 1 µg/mL
43 | COC(=O)COC(=O)NC(=O)c1ccsc1NC(=O)c1nc2cnccc2s1 [Compound 431] |  |  | 25 to 50 µg/mL (≈ 59.5 to 119 µM) | < 1 µg/mL
44 | CC(C)OC(=O)NC(=O)c1ccsc1NC(=O)c1ccc2nonc2c1 [Compound 403] |  |  | < 25 µg/mL | < 1 µg/mL
45 | O=C(NC(=O)c1ccsc1NC(=O)c1nc2ccccc2s1)OCC(F)F [Compound 40] | < 1 µg/mL |  | < 25 µg/mL | 
46 | CCOC(=O)NC(=O)c1cc(F)sc1NC(=O)c1nc2ccccc2s1 [Compound 16] | < 1 µg/mL |  | 25 to 50 µg/mL (≈ 63.5 to 127 µM) | 
47 | CCOC(=O)NC(=O)c1ccsc1NC(=O)c1ccc2sc(C3CC3)nc2c1 [Compound 414] |  |  | > 50 µg/mL | < 1 µg/mL
48 | COC(=O)c1ccsc1NC(=O)c1nc2cnccc2s1 [Compound 432] |  |  | 25 to 50 µg/mL (≈ 78.3 to 157 µM) | > 3 µg/mL
49 | CCOC(=O)NC(=O)c1ccsc1NC(=O)c1cnc2ccnn2c1 [Compound 81] | < 1 µg/mL | > 25 µg/mL |  | 
50 | O=C(NC(=O)c1cc(F)sc1NC(=O)c1nc2ccccc2s1)OCC(F)(F)F [Compound 17] | < 1 µg/mL |  | < 25 µg/mL | 
51 | CCOC(=O)NC(=O)c1ccsc1NC(=O)c1cn2ccc(C#N)cc2n1 [Compound 405] |  |  | < 25 µg/mL | 1 to 3 µg/mL (≈ 2.61 to 7.82 µM)
52 | O=C(NC(=O)c1ccsc1NC(=O)c1nc2ccccc2s1)OC1CCCCC1 [Compound 30] | < 1 µg/mL |  | > 50 µg/mL | 
53 | CCOC(=O)NC(=O)c1ccsc1NC(=O)c1ccc2ocnc2c1 [Compound 26] | < 1 µg/mL |  | > 50 µg/mL | 
54 | CCOC(=O)NC(=O)c1c(C2CC2)csc1NC(=O)c1nc2ccccc2s1 [Compound 245] | > 3 µg/mL | > 25 µg/mL |  | 
55 | CN(C)C(=O)NC(=O)c1ccsc1NC(=O)c1nc2ccccc2s1 [Compound 45] | > 3 µg/mL |  | > 50 µg/mL | 
56 | CC(C)OC(=O)NC(=O)c1ccsc1NC(=O)c1cn2cc(S(C)(=O)=O)ccc2n1 [Compound 439] |  |  | 25 to 50 µg/mL (≈ 55.5 to 111 µM) | > 3 µg/mL
57 | COCCOC(=O)NC(=O)c1ccsc1NC(=O)c1nc2ncccc2s1 [Compound 436] |  |  | 25 to 50 µg/mL (≈ 61.5 to 123 µM) | > 3 µg/mL
